{"source": "patent US9211325B2", "about": "“Peptide adjuvants” (priority 2008, dated 2015)", "tested_on": "H5N1 A\\Hanoi\\30408\\2005", "design": "species or system BALB/c mice", "settings": "mouse, in vivo", "note": "Entries after “also recorded” stand apart in the source; their conditions may differ.", "data": [{"substance": "KWCEC (Short peptide sequence not known to occur in nature) [5mer4]", "values": [{"measurement": "clinical signs of disease", "result": "no clinical signs of disease"}, {"measurement": "survival", "result": 90, "unit": "%"}, {"measurement": "survival (protected from death)", "result": 50, "unit": "%"}, {"measurement": "weight loss", "result": "minimal weight loss; also recorded: no statistically significant weight loss"}]}]}
